# Target: DOT1L (Homo sapiens, UniProt Q8TEK3)
# Assay: Differential Scanning Fluorimetry (DFS) Assay
# Assay type: binding
# Description: DFS enables assays suitable for high throughput screening assays for the effect of a small molecule on protein stability. DFS assays measures the thermal stability of a target protein and a subsequent increase in protein melting temperature upon binding of a ligand to the protein. Generally, specific binding will stabilize the protein. An exemplary protocol for performing a DFS for detecting the binding of (with or without a test compound) a fluorescence labeled probe to DOT1L, or an analog thereof, is as follows.
# First, a protein solution comprising DOT1L or an active fragment thereof (e.g., DOT1L SET domain) is prepared in a suitable buffer at a desired concentration (e.g., 0.1 μM. 0.5 μM, 1.0 μM, 2.5 μM, 5.0 μM, 10 μM, 20 μM, or 100 μM). Then, a probe solution comprising a compound of formula (I), (le), (If) or (Ig) is prepared. A volume of the protein solution is combined with a volume of the probe solution in the presence or absence of a test compound. Binding of the probe to DOT1L or an active fragment thereof is then measured using a fluorometer.
# Chain of DOT1L (Q8TEK3 whole entry, species assumed): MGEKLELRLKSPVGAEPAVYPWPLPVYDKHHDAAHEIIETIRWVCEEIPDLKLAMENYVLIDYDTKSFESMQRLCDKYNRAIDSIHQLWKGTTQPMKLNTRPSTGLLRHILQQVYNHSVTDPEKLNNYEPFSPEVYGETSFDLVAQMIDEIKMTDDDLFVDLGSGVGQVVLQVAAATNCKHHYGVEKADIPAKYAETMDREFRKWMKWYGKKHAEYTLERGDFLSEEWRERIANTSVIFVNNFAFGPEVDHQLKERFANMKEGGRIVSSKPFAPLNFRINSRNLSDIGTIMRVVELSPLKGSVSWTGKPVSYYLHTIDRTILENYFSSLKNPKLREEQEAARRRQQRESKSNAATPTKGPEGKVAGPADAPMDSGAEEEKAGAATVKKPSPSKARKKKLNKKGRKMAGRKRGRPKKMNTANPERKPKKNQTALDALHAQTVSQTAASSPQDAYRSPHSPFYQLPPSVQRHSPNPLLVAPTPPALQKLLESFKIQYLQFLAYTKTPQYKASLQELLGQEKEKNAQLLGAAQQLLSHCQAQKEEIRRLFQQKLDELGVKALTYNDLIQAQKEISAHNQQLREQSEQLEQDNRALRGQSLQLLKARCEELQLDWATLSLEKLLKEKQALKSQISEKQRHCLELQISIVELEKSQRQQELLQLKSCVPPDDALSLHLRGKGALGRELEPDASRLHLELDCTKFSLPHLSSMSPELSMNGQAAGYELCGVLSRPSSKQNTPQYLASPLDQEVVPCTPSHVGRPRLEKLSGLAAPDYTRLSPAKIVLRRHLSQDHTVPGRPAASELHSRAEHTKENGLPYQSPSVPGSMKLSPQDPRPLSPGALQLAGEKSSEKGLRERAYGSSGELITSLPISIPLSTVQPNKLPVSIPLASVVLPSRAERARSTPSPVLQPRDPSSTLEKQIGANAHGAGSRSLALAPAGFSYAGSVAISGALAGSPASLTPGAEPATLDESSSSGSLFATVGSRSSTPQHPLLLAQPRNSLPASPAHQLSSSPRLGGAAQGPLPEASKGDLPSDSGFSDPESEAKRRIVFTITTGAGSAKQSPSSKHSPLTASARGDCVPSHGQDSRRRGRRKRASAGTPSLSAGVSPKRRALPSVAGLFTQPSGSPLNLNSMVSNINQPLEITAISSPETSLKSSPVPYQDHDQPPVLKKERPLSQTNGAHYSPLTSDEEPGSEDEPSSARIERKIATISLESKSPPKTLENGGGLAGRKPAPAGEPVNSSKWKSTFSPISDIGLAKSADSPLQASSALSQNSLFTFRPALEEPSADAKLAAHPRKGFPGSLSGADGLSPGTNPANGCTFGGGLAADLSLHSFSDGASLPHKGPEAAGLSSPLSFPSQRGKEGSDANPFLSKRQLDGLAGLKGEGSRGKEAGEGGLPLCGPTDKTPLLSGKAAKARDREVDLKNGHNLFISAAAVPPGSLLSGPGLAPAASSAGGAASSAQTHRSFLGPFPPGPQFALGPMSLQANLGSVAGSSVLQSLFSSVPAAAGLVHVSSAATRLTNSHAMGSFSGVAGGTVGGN
compound,measurement,value
CC(C)N(CCCNC(=O)Nc1ccc(C(C)(C)C)cc1)C[C@H]1O[C@@H](n2cnc3c(NCCCC(=O)NCCCOCCOCCOCCCNC(=O)CCCC[C@@H]4SC[C@@H]5NC(=O)N[C@@H]54)ncnc32)[C@H](O)[C@@H]1O [JQPROB2B],"binding effect / binding affinity against DOT1L (thermal stabilisation, FIG. 1)",reasonable binding affinity

# Source: patent US9535067B2, “DOT1L probes” (DANA-FARBER CANCER INSTITUTE, INC., priority 2013, dated 2017)
